Source: patent US20130287918A1, “MICROBICIDAL COMPOSITION” (DUPONT NUTRITION DIOSCIENCES APS, priority 2010, published 2013)

How the values were obtained:
Format in all cases: cell-based
[1] = test system: Candida parapsilosis DCS 1090; test: Minimal Inhibition Concentration Assay (MIC), 96 well liquid based; details: Lodderomyces parapsilosis, DCS1090; in blend FP1000S; read-out: actual presence of the individual compound in the blend at MIC level
Description: (§1) The target strains used for assessment of antimicrobial activity are isolates of different origin e.g. food spoilage isolates, spoilage organisms provided by a customer, national strain collections (e.g. DSMZ, ATCC) collected in the in house Danisco Culture Collection (DCS) (Danisco, Brabrand, Denmark), maintained at −86′C in suitable broth containing glycerol 50% (v/v). The strains were chosen to represent Gram negative and fungal strains. All species used were aerobic. Before each experiment, stock cultures were propagated through two consecutive growth cycles in suitable media and temperature. The overnight cultures are diluted in saline solution to obtain working cultures.
(§2) Yeast and mould strains were incubated at 25° C., and bacterial isolates were grown at 30° C. under aerobic conditions depending on the preferred conditions for the particular strain (Method no AP-002).
(§3) The Minimal Inhibition Concentration Assay (MIC) is a 96 well liquid based assay developed for an automated assessment system and performed essentially as described in (Method no AP-003). Indicator strains (table 2) are tested for inhibition of growth by the putative anti-microbial substances and combinations thereof, using a wide concentration range (depending on the compound), in this case by performing a ⅔-dilution series of each sample at pH 6.0 (±0.2)). From a 10 fold diluted overnight culture 5 μl of each strain was inoculated in one well corresponding to an approximate inoculation density of 10^3-10^4 cells/well. Media used were YM-broth for yeast and moulds and CASO-broth for bacterial isolates. Strains were incubated at 24° C. or 30° C. for 24 to 48 hours depending on the strain. The increase in optical density (O.D.) after incubation is compared to a growth control to estimate whether the substance has a bacteriostatic effect and to determine the MIC. MIC is defined as the lowest concentration of the antimicrobial that will inhibit measurable growth. A bacteriostatic effect is defined as the OD620 being less than or equal to 20% of the growth control after incubation.
(§4) To obtain more accurate estimates of the values, an Excel macro was used to process the raw data. The macro scans the raw data and finds the two concentrations that lie on either side of the O.D. 20% threshold value. It then pinpoints the actual concentration where the O.D. crosses the threshold, using linear correlation. All data are presented as the mean values of duplicates for each microorganism.
(§5) The MIC assays were run on a fully automated assessment system consisting of a 9-hotel Cytohotel (Thermo), a Biomek FxP pipetting robot (Beckman Coulter), an ORCA robotic arm on a 3 meter rails (Beckman Coulter), 2 Synergy HT spectrophotometers (Biotek), a Cytomat 6001 incubator (Thermo) and a Cytomat 2C incubator (Thermo).

[2] = test system: Candida tropicalis DCS 604; test: as above; details: DCS604, in blend FP1000S, read-out: actual presence of the individual compound in the blend at MIC level
Description: as §1, §2, §3, §4, §5

[3] = test system: Debaryomyces hansenii DCS 605; test: as above; details: DCS605, in blend FP1000S, read-out: actual presence of the individual compound in the blend at MIC level
Description: as §1, §2, §3, §4, §5

Escherichia coli DCS 495 = test: as above; details: DCS495, read-out: actual presence of the individual compound in the blend at MIC level
Description: as §1, §2, §3, §4, §5

Pichia anomala DCS 603 = test: as above; details: Hansenula anomala, DCS603; in blend FP1000S; read-out: actual presence of the individual compound in the blend at MIC level
Description: as §1, §2, §3, §4, §5

[4] = test system: Pseudomonas fluorescens DCS 428; test: as above; details: DCS428, in blend FP1000S, read-out: actual presence of the individual compound in the blend at MIC level
Description: as §1, §2, §3, §4, §5

[5] = test system: Rhodotorula glutinis DCS 606; test: as above; details: DCS606, in blend FP1000S, read-out: actual presence of the individual compound in the blend at MIC level
Description: as §1, §2, §3, §4, §5

[6] = test system: Saccharomyces cerevisiae DCS 599; test: as above; details: DCS599, in blend FP1000S, read-out: actual presence of the individual compound in the blend at MIC level
Description: as §1, §2, §3, §4, §5

[7] = test system: Salmonella enteritidis DCS 1152; test: as above; details: Salmonella enterica, in blend FP1000S, read-out: actual presence of the individual compound in the blend at MIC level
Description: as §1, §2, §3, §4, §5

[8] = test system: Aspergillus niger DCS 1115; test: as above; details: DCS1115, in blend FP1000S, read-out: actual presence of the individual compound in the blend at MIC level
Description: as §1
(§6) Mould spore inoculums were prepared as follows: approx. 2 ml of sterile demineralised water was used to wash the spores off an out-grown mould (minimum 5 day old plate). This suspension is transferred to a sterile container.
as §2
as §3, with “MIC is defined as the lowest concentration of the antimicrobial that will inhibit measurable growth. A bacteriostatic effect is defined as the OD620 being less than or equal to 20% of the growth control after incubation.” left out

[9] = test system: Aspergillus parasiticus DCS 709; test: as above; details: DCS709, in blend FP1000S, read-out: actual presence of the individual compound in the blend at MIC level
Description: as §1, §6, §2
as §3, with “MIC is defined as the lowest concentration of the antimicrobial that will inhibit measurable growth. A bacteriostatic effect is defined as the OD620 being less than or equal to 20% of the growth control after incubation.” left out

[10] = test system: Aspergillus versicolor DCS 1069; test: as above; details: DCS1069, in blend FP1000S, read-out: actual presence of the individual compound in the blend at MIC level
Description: as §1, §6, §2
as §3, with “MIC is defined as the lowest concentration of the antimicrobial that will inhibit measurable growth. A bacteriostatic effect is defined as the OD620 being less than or equal to 20% of the growth control after incubation.” left out

Saccharomyces servazzii = test: In vitro susceptibility of contaminant yeast by minimal inhibition concentrations; details: MicroGARD 200 at 1% (w/v); allyl isothiocyanate 0.01%; FP 1000-D1 at 1% (w/v)
Procedure: The dominating yeast in the control batch was traced back to Pichia spp., likely to be the added DCS 1175 strain. At what time point the contaminant yeast occurred is not known. The contaminant yeast. Saccharomyces servazzii, was tested in vitro for susceptibility towards MicroGARD® 200, allyl isothiocyanate, and the FP1000 variant FP 1000-D1 by determination of minimal inhibition concentrations (data not shown) The results confirmed a tolerance of the yeast against MicroGARD® 200 at 1% (w/v) and susceptibility towards allyl isothiocyanate 0.01% and FP 1000-D1 at 1% (w/v), respectively. Consequently, although eventually present in all batches, Saccharomyces servazzii could have been suppressed in the preserved batches, but was able to outgrow in batch D. The high acetic acid concentration in the unpreserved batch A and the competing yeast flora could have caused suppression of the contaminant in those samples.

In the case of C=CCN=C=S [AITC, allyl isothiocyanate], the MIC [1] is reported as 67 µg/mL, the MIC [2] is reported as 235 µg/mL and the MIC [3] is reported as 213 µg/mL. The MIC (Escherichia coli DCS 495) was > 700 µg/mL, the MIC (Pichia anomala DCS 603) was 380 µg/mL and the MIC [4] was 412 µg/mL. The MIC [5] was 200 µg/mL, the MIC [6] was 196 µg/mL and the MIC [7] was > 700 µg/mL. The MIC [8] was 106 µg/mL, the MIC [9] was 38 µg/mL and the MIC [10] was 143 µg/mL. The “in vitro susceptibility of contaminant yeast (data not shown)” value (Saccharomyces servazzii) was “susceptibility”.
